Bounds are passed on as bounds.

The test system of data set [1] is morphine-induced Straub tail. In words: Anti-Straub tail test (antagonism of morphine-induced Straub tail), mice. Type of data set: in vivo, mice (female CF1 S). As for the experimental part:
This property is the basis of a mouse test for narcotic antagonists.
Female CF1 S mice (fasted 17-21 hrs.), 5 per dose, were injected orally or subcutaneously with test drug at 0.67, 2, 6, 18, 54 and 162 mg/kg or other appropriate doses in 0.20 ml 1% Methocel® per mouse. Five minutes later, 30 mg/kg of morphine sulfate in 0.20 ml 1% Methocel® per mouse was given intraperitoneally starting ten minutes later, the mice were observed continuously for 5 minutes for evidence of Straub tail. Prevention of a 90° Straub tail during this observation period was taken as indication of narcotic antagonist ability.
(§1) Most of the compounds were analgetic in the mouse antiphenylquinone test system and only a few caused Straub tail. Most also were antagonists in the mouse anti-Straub tail test.
(§2) On the other hand, the very high Straub tail ED50 's indicate that most of the compounds of the invention have very low likelihood of being addictive. […] Thus, the compounds of the invention are characterized by rapid onset of action, high oral potency and the ability to alleviate deepseated pain. Furthermore, abuse liability for most of the compounds should be extremely low or non-existent.

Data set [2] deals with morphine-induced Straub tail. The note with it: mice; Blumberg et al. 1968; cited from earlier work.
In data set [3] the test system is opiate analgesics. As to conditions: background; cited from earlier work.
For data set [4] the following is noted: background; cited from earlier work.
The conditions of data set [5]: Lasagna and Beecher 1954; cited from earlier work.
Data set [6] has as its system phenylquinone-induced writhing. As to the kind of experiment: Phenylquinone writhing (PQW) analgesic test, oral, mice. Type of data set: in vivo, mice (female white). The note with it: for EFFECT ED50, Oral Anti-PQW: mice, phenylquinone writhing. The method, then: A standard procedure for detecting and comparing the analgesic activity of compounds in this series for which there is good correlation with human efficacy is the standard phenylquinone writhing test modified from Siegmund, et al., Proc. Soc. Exp. Biol. Med., 95, 729 (1957). A test compound suspended in 1% methocel® was given orally to fasted (17-21 hours) female white mice, 5-20 animals per double blind test. Aqueous (0.01% phenyl-p-benzoquinone) phenylquinone was injected intraperitoneally at 24 minutes later using 0.20 ml per mouse. […] The effective analgesic dose for 50% of the mice (ED50) was calculated by the moving average method of Thompson, W. R., Bact. Rev., 11, 115-145 (1947).
as §1, §2

The test system of data set [7] is Straub tail. In words: Straub tail test (narcotic agonist effect), oral, mice. Type of data set: in vivo, mice (CF1 S female). As to conditions: tail erected 90° or more within 24 minutes. The method, then:
Narcotic analgesics produce in mice an erection and arching of the tail (90° or more) which is referable to spinal cord stimulation. This Straub tail reaction is not produced by other analgesics, including the narcotic antagonists.
The method used was modified from Shemano, I., and Wendel, H., Tox. Appl. Pharm., 6, 334-9 (1964). CF1 S female mice (18-21 g), 10-20 mice per dose, were intubated with log scaled doses of analgesic in 1% aqueous methylcellulose. A positive Straub tail response was recorded if a tail was erected 90° or more for 5 seconds at any time within 24 minutes after dosing. A quantal Straub tail ED50 was calculated by the moving average method [Thompson, W. R., Bact. Rev., 11, 115-145 (1947)].
as §1, §2

For `COc1cccc2c1O[C@H]1CCC[C@H]3CN(Cc4ccccc4)CC[C@@]231` (relative stereo) [Example 10, 3-Benzyl-9-methoxy-2,3,4,4aα,5,6,7,7aα-octahydro-1H-benzo[4,5]furo[3,2-e]isoquinoline], in data set [1] (mouse anti-Straub tail test), the “narcotic antagonism” value is “pure narcotic antagonists”.

With `C=CCN1CC[C@]23c4c5ccc(O)c4O[C@H]2[C@@H](O)C=C[C@H]3[C@H]1C5` [nalorphine], the “prevention of morphine-induced Straub tail” value in data set [2] is listed as “prevent the induction of Straub tail in mice”. Further, in data set [3], the “antagonism of opiate analgesics” value is “effectively antagonize overdoses of the opiate analgesics”. In addition, in data set [4], the intrinsic analgesic activity entry was “some analgesic effects by themselves”. Further, the “analgetic properties in man” value in data set [5] was “also has analgetic properties in man”.

With `CN1CCC23c4cccc(O)c4OC2CCCC3C1` (single isomer, unassigned) [Example 3 (-) isomer], the “EFFECT ED50, Oral Anti-PQW” value in data set [6] (listed as 3 (-) isomer) is 2.1. Moreover, in data set [7], the “EFFECT ED50, Oral Straub-Tail” value is greater than 135. Besides, the “EFFECT ED50, Anti-Straub Tail (s.c.)” value in data set [1] (subcutaneous, mice, vs morphine sulfate 30 mg/kg i.p., listed as 3 (-) isomer) was found to be 0.14.

Take `CN1CC[C@]23c4c5ccc(O)c4O[C@H]2[C@@H](O)C=C[C@H]3[C@H]1C5` [Morphine]: in data set [6], the “EFFECT ED50, Oral Anti-PQW” value was determined as 3.0. The “EFFECT ED50, Oral Straub-Tail” value in data set [7] was determined as 48.

Take `Oc1cccc2c1O[C@H]1CCC[C@H]3CN(CC4CC4)CC[C@@]231` (relative stereo) [Example 5, 3-Cyclopropylmethyl-2,3,4,4aα,5,6,7,7aα-octahydro-1H-benzo[4,5]furo[3,2-e]isoquinolin-9-ol]: in data set [6] (mouse analgesia data), the “analgesic potency relative to morphine” value is recorded as “several times greater potency than morphine”.

Regarding `CN1CCC23c4cccc(O)c4OC2CCCC3C1` (single isomer, unassigned) [Example 3 (+)isomer], the “EFFECT ED50, Oral Anti-PQW” value in data set [6] (listed as 3 (+)isomer) was determined as 61. For the same compound, the “EFFECT ED50, Oral Straub-Tail” value in data set [7] is reported as greater than 135. The “EFFECT ED50, Anti-Straub Tail (s.c.)” value in data set [1] (subcutaneous, mice, vs morphine sulfate 30 mg/kg i.p., listed as 3 (+)isomer) was determined as 3.3.

Consider `CN1CC[C@]23c4cccc(O)c4O[C@H]2CCC[C@H]3C1` (relative stereo) [Example 3, 3-Methyl-2,3,4,4aα,5,6,7,7aα-octahydro-1H-benzo[4,5]furo[3,2-e]isoquinolin-9-ol], for which, in data set [7] (Mus musculus, 0.4 h), the ED50 (usually the midpoint of the dose-response relation) is 135 mg/kg.

As for `C=CCN1CC[C@]23c4c5ccc(O)c4O[C@H]2C(=O)CC[C@@]3(O)[C@H]1C5` [naloxone], in data set [2], the “prevention of morphine-induced Straub tail” value is “prevent the induction of Straub tail in mice”. For the same compound, in data set [3], the “antagonism of emetic effect of meperidine” value is on record as “antagonizes the emetic effect of meperidine” and the “antagonism of opiate analgesics” value was “effectively antagonize overdoses of the opiate analgesics”.

With `COc1cccc2c1O[C@H]1CCC[C@H]3CN(CC#N)CC[C@@]231` (relative stereo) [Example 20, 9-Methoxy-2,3,4,4aα,5,6,7,7aα-octahydro-1H-benzo[4,5]furo[3,2-e]isoquinoline-3-acetonitrile], in data set [1] (Mus musculus, sc, subcutaneous, mice, vs morphine sulfate 30 mg/kg i.p., read-out: EFFECT ED50, Anti-Straub Tail (s.c.)), the ED50 amounted to 27 mg/kg.

As to `C=CCN1CC[C@]23CCCC[C@H]2[C@H]1Cc1ccc(O)cc13` [levallorphan], the “antagonism of opiate analgesics” value in data set [3] is on record as “effectively antagonize overdoses of the opiate analgesics”. Besides, the intrinsic analgesic activity result in data set [4] was “some analgesic effects by themselves”.
